Experimental data published in BigSolDB 2.1.

CC(=O)N(CC(O)CO)c1c(I)c(C(=O)NCC(O)CO)c(I)c(C(=O)NCC(O)CO)c1I (stereo not given)
solubility (mole fraction)
Conditions	283.15 K	288.15 K	293.15 K	298.15 K	303.15 K	308.15 K	313.15 K	318.15 K	323.15 K
in 1,4-dioxane	–	5.7e-05	6.9e-05	8.3e-05	0.0001	0.000121	0.000145	0.000174	0.000208
in 2-butanone	0.000148	0.000178	0.000211	0.000255	0.000301	0.000358	0.000425	0.00049	0.000566
in DMSO	–	–	0.000293	0.000357	0.000428	0.00051	0.000624	0.000737	0.000869
in acetone	0.000174	0.000209	0.000256	0.000308	0.000371	0.000443	0.000526	0.00062	0.000741
in acetonitrile	8.47e-05	0.000101	0.000123	0.000146	0.000175	0.00021	0.00025	0.000298	0.000354
in cyclohexane	9.38e-06	1.22e-05	1.55e-05	2e-05	2.51e-05	3.14e-05	3.89e-05	4.81e-05	5.96e-05
in ethanol	0.00113	0.0013	0.00148	0.00169	0.00192	0.00217	0.00244	0.00274	0.00306
in ethyl acetate	0.000126	0.00015	0.00018	0.000215	0.000256	0.000301	0.000355	0.000414	0.000481
in isopropanol	0.000389	0.000456	0.000555	0.000674	0.000806	0.000966	0.00115	0.00137	0.00165
in n-butanol	0.000235	0.000287	0.000342	0.000416	0.0005	0.000601	0.000723	0.000866	0.00103
in n-propanol	0.000715	0.000804	0.000911	0.00104	0.00119	0.00137	0.00156	0.00181	0.0021
in toluene	2.5e-05	3.22e-05	4.06e-05	5.12e-05	6.28e-05	7.57e-05	9.19e-05	0.000112	0.000134
